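Where inhibition never reached the appropriate level, the endpoint shown equals the highest concentration tested. Otherwise, values were interpolated linearly from a five-concentration, 48-hour dose response in 96-well plates. Here, GI50 denotes the concentration required for 50% inhibition of growth.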 Activity calls are given as the source filed them. Rule as the data show it: active = GI50 up to about 1.1 µM and inactive = higher.
Experiments:
Test in all cases: NCI anticancer screen, dose series, 48 h
786-0 = test system: 786-0
EKVX = test system: EKVX
HOP-62 = test system: HOP-62
HT-29 = test system: HT-29
Hs-578T = test system: Hs-578T
K562 = test system: K562
KM12 = test system: KM12
MCF7 = test system: MCF7
NCI-H23 = test system: NCI-H23
NCI-H522 = test system: NCI-H522
NCI/ADR-RES = test system: NCI/ADR-RES
OVCAR-3 = test system: OVCAR-3
OVCAR-4 = test system: OVCAR-4
PC-3 = test system: PC-3
SF-295 = test system: SF-295
SK-MEL-28 = test system: SK-MEL-28
TK-10 = test system: TK-10
UACC-62 = test system: UACC-62
HCT-116 = test system: HCT-116

CC(C)CCC[C@@H](C)[C@H]1CC[C@H]2[C@@H]3CC=C4C[C@@H](OC(=O)c5cccc6c(=O)c7ccccc7[nH]c56)CC[C@]4(C)[C@H]3CC[C@]12C
GI50 (786-0): > 75 µM (inactive)
GI50 (EKVX): > 75 µM (inactive)
GI50 (HOP-62): 34.9 µM (inactive)
GI50 (HT-29): > 75 µM (inactive)
GI50 (Hs-578T): > 75 µM (inactive)
GI50 (K562): 43.7 µM (inactive)
GI50 (KM12): > 75 µM (inactive)
GI50 (MCF7): > 75 µM (inactive)
GI50 (NCI-H23): > 75 µM (inactive)
GI50 (NCI-H522): > 75 µM (inactive)
GI50 (NCI/ADR-RES): > 75 µM (inactive)
GI50 (OVCAR-3): > 75 µM (inactive)
GI50 (OVCAR-4): 3.5 µM (inactive)
GI50 (PC-3): > 75 µM (inactive)
GI50 (SF-295): > 75 µM (inactive)
GI50 (SK-MEL-28): > 75 µM (inactive)
GI50 (TK-10): > 75 µM (inactive)
GI50 (UACC-62): > 75 µM (inactive)

N[C@H](CCC(=O)NCP(=O)(O)O)C(=O)O
GI50 (786-0): > 100 µM (inactive)
GI50 (EKVX): > 100 µM (inactive)
GI50 (HCT-116): > 100 µM (inactive)
GI50 (HOP-62): > 100 µM (inactive)
GI50 (HT-29): > 100 µM (inactive)
GI50 (Hs-578T): > 100 µM (inactive)
GI50 (K562): > 100 µM (inactive)
GI50 (KM12): > 100 µM (inactive)
GI50 (MCF7): > 100 µM (inactive)
GI50 (NCI-H23): > 100 µM (inactive)
GI50 (NCI-H522): > 100 µM (inactive)
GI50 (NCI/ADR-RES): > 100 µM (inactive)
GI50 (OVCAR-3): > 100 µM (inactive)
GI50 (PC-3): > 100 µM (inactive)
GI50 (SF-295): 5.33 µM (inactive)
GI50 (SK-MEL-28): > 100 µM (inactive)
GI50 (TK-10): 10.5 µM (inactive)
GI50 (UACC-62): > 100 µM (inactive)

O=c1oc2ccc(Cl)cc2c2ccccc12
GI50 (786-0): 40.1 µM (inactive)
GI50 (EKVX): 10.8 µM (inactive)
GI50 (HCT-116): 76.2 µM (inactive)
GI50 (HOP-62): 18.8 µM (inactive)
GI50 (HT-29): > 100 µM (inactive)
GI50 (Hs-578T): 18.3 µM (inactive)
GI50 (K562): > 100 µM (inactive)
GI50 (MCF7): 53.2 µM (inactive)
GI50 (NCI-H23): 23.8 µM (inactive)
GI50 (NCI-H522): 48.5 µM (inactive)
GI50 (NCI/ADR-RES): 84.1 µM (inactive)
GI50 (OVCAR-3): > 100 µM (inactive)
GI50 (OVCAR-4): > 100 µM (inactive)
GI50 (PC-3): > 100 µM (inactive)
GI50 (SF-295): 34.4 µM (inactive)
GI50 (SK-MEL-28): > 100 µM (inactive)
GI50 (TK-10): 51.6 µM (inactive)
GI50 (UACC-62): 71.6 µM (inactive)

NCCCN1CCN(c2ccccc2)CC1
GI50 (786-0): > 100 µM (inactive)
GI50 (EKVX): > 100 µM (inactive)
GI50 (HCT-116): > 100 µM (inactive)
GI50 (HOP-62): 10.9 µM (inactive)
GI50 (HT-29): 95.1 µM (inactive)
GI50 (Hs-578T): > 100 µM (inactive)
GI50 (K562): > 100 µM (inactive)
GI50 (KM12): > 100 µM (inactive)
GI50 (MCF7): > 100 µM (inactive)
GI50 (NCI-H522): 73.6 µM (inactive)
GI50 (NCI/ADR-RES): > 100 µM (inactive)
GI50 (OVCAR-3): 10.7 µM (inactive)
GI50 (OVCAR-4): > 100 µM (inactive)
GI50 (PC-3): 33.4 µM (inactive)
GI50 (SF-295): 10.2 µM (inactive)
GI50 (SK-MEL-28): > 100 µM (inactive)
GI50 (TK-10): > 100 µM (inactive)
GI50 (UACC-62): 70 µM (inactive)

CC1=CC(=O)N(n2c(Cc3ccccc3)n[nH]c2=O)C1=O
GI50 (786-0): > 100 µM (inactive)
GI50 (EKVX): > 100 µM (inactive)
GI50 (HCT-116): > 100 µM (inactive)
GI50 (HT-29): > 100 µM (inactive)
GI50 (Hs-578T): > 100 µM (inactive)
GI50 (K562): 71.9 µM (inactive)
GI50 (KM12): > 100 µM (inactive)
GI50 (MCF7): > 100 µM (inactive)
GI50 (NCI-H23): > 100 µM (inactive)
GI50 (NCI-H522): > 100 µM (inactive)
GI50 (NCI/ADR-RES): > 100 µM (inactive)
GI50 (OVCAR-3): > 100 µM (inactive)
GI50 (OVCAR-4): > 100 µM (inactive)
GI50 (PC-3): 93.5 µM (inactive)
GI50 (SF-295): > 100 µM (inactive)
GI50 (TK-10): > 100 µM (inactive)
GI50 (UACC-62): > 100 µM (inactive)

COC1(OC)C[C@H](C)[C@@]23O[C@]24c2cc(O)c5c(c2N[C@H]3C#C/C=C\C#C[C@]14O)C(=O)c1ccccc1C5=O
GI50 (786-0): 0.005 µM (active)
GI50 (EKVX): 0.0286 µM (active)
GI50 (HCT-116): 0.005 µM (active)
GI50 (HOP-62): 0.005 µM (active)
GI50 (HT-29): 0.00655 µM (active)
GI50 (Hs-578T): 0.0705 µM (active)
GI50 (K562): 0.005 µM (active)
GI50 (MCF7): 0.005 µM (active)
GI50 (NCI-H23): 0.005 µM (active)
GI50 (NCI-H522): 0.00635 µM (active)
GI50 (NCI/ADR-RES): 0.005 µM (active)
GI50 (OVCAR-3): 0.0431 µM (active)
GI50 (OVCAR-4): 0.0964 µM (active)
GI50 (PC-3): 0.005 µM (active)
GI50 (SF-295): 0.005 µM (active)
GI50 (SK-MEL-28): 0.00775 µM (active)
GI50 (TK-10): 0.0245 µM (active)
GI50 (UACC-62): 0.005 µM (active)

COC(=O)[C@]12CCC(C)(C)C[C@H]1C1=CC[C@@H]3[C@@]4(C)CC[C@H](OC5OC(CO)C(O)C(O)C5OC5OC(CO)C(O)C(O)C5O)C(C)(C)[C@@H]4CC[C@@]3(C)[C@]1(C)CC2 (stereo partly drawn)
GI50 (786-0): 11.2 µM (inactive)
GI50 (EKVX): 11.9 µM (inactive)
GI50 (HCT-116): 5.41 µM (inactive)
GI50 (HOP-62): 12.6 µM (inactive)
GI50 (HT-29): 10.4 µM (inactive)
GI50 (Hs-578T): 22.5 µM (inactive)
GI50 (K562): 10.1 µM (inactive)
GI50 (KM12): 12.6 µM (inactive)
GI50 (MCF7): 12 µM (inactive)
GI50 (NCI-H23): 7.08 µM (inactive)
GI50 (NCI-H522): 3.1 µM (inactive)
GI50 (NCI/ADR-RES): 14.5 µM (inactive)
GI50 (OVCAR-3): 10.6 µM (inactive)
GI50 (OVCAR-4): 4.43 µM (inactive)
GI50 (PC-3): 3.89 µM (inactive)
GI50 (SF-295): 14.2 µM (inactive)
GI50 (SK-MEL-28): 3.37 µM (inactive)
GI50 (UACC-62): 10.5 µM (inactive)

CN(C)CCNC(=O)c1cccc(C(=O)Nc2ccccc2)c1[N+](=O)[O-]
GI50 (786-0): > 100 µM (inactive)
GI50 (HCT-116): > 100 µM (inactive)
GI50 (HOP-62): > 100 µM (inactive)
GI50 (HT-29): 71.8 µM (inactive)
GI50 (Hs-578T): > 100 µM (inactive)
GI50 (K562): > 100 µM (inactive)
GI50 (KM12): > 100 µM (inactive)
GI50 (MCF7): > 100 µM (inactive)
GI50 (NCI-H23): > 100 µM (inactive)
GI50 (NCI-H522): > 100 µM (inactive)
GI50 (NCI/ADR-RES): > 100 µM (inactive)
GI50 (OVCAR-3): > 100 µM (inactive)
GI50 (PC-3): > 100 µM (inactive)
GI50 (SF-295): > 100 µM (inactive)
GI50 (SK-MEL-28): > 100 µM (inactive)
GI50 (TK-10): > 100 µM (inactive)
GI50 (UACC-62): > 100 µM (inactive)

COC(=O)CCCc1ccc2c(c1)CCC2
GI50 (786-0): > 100 µM (inactive)
GI50 (HCT-116): > 100 µM (inactive)
GI50 (HOP-62): > 100 µM (inactive)
GI50 (Hs-578T): > 100 µM (inactive)
GI50 (KM12): > 100 µM (inactive)
GI50 (MCF7): > 100 µM (inactive)
GI50 (NCI-H23): > 100 µM (inactive)
GI50 (NCI-H522): 92.3 µM (inactive)
GI50 (NCI/ADR-RES): > 100 µM (inactive)
GI50 (OVCAR-3): > 100 µM (inactive)
GI50 (OVCAR-4): > 100 µM (inactive)
GI50 (PC-3): > 100 µM (inactive)
GI50 (SF-295): > 100 µM (inactive)
GI50 (SK-MEL-28): > 100 µM (inactive)
GI50 (TK-10): > 100 µM (inactive)
GI50 (UACC-62): > 100 µM (inactive)

COc1ccc(C(=O)O[C@@H]2CCN3CC[C@H](C)[C@H]23)cc1
GI50 (786-0): > 100 µM (inactive)
GI50 (EKVX): > 100 µM (inactive)
GI50 (HCT-116): > 100 µM (inactive)
GI50 (HOP-62): > 100 µM (inactive)
GI50 (HT-29): > 100 µM (inactive)
GI50 (Hs-578T): > 100 µM (inactive)
GI50 (KM12): > 100 µM (inactive)
GI50 (MCF7): > 100 µM (inactive)
GI50 (NCI-H23): > 100 µM (inactive)
GI50 (NCI-H522): > 100 µM (inactive)
GI50 (NCI/ADR-RES): > 100 µM (inactive)
GI50 (OVCAR-3): > 100 µM (inactive)
GI50 (PC-3): > 100 µM (inactive)
GI50 (SF-295): > 100 µM (inactive)
GI50 (SK-MEL-28): > 100 µM (inactive)
GI50 (TK-10): > 100 µM (inactive)
GI50 (UACC-62): > 100 µM (inactive)

C/C(=N\NC(=S)N1CCCCCCCCCCCC1)c1ccccn1
GI50 (786-0): 0.173 µM (active)
GI50 (EKVX): 0.0514 µM (active)
GI50 (HCT-116): 0.447 µM (active)
GI50 (HOP-62): 0.132 µM (active)
GI50 (HT-29): 0.0356 µM (active)
GI50 (Hs-578T): 0.24 µM (active)
GI50 (K562): 0.0223 µM (active)
GI50 (KM12): 0.102 µM (active)
GI50 (MCF7): 0.0865 µM (active)
GI50 (NCI-H23): 0.379 µM (active)
GI50 (NCI-H522): 0.0855 µM (active)
GI50 (NCI/ADR-RES): 0.778 µM (active)
GI50 (OVCAR-3): 0.0346 µM (active)
GI50 (OVCAR-4): 0.0491 µM (active)
GI50 (PC-3): 0.107 µM (active)
GI50 (SF-295): 0.324 µM (active)
GI50 (SK-MEL-28): 0.33 µM (active)
GI50 (TK-10): 0.166 µM (active)

Reference: ChEMBL document CHEMBL1201862, “PubChem BioAssay data set” (2004)
